# Earlier results as cited in patent publication US20110182952A1, “DRUG DELIVERY FROM EMBOLIC AGENTS” (BIOCOMPATIBLES UK LIMITED, priority 2004, published 2011).
# Details: uterine artery embolization for leiomyomata
structure (smiles),measurement,value
CCN(CC)CC(=O)Nc1c(C)cccc1C [lidocaine],arterial spasm on intraarterial use,causes a large amount of spasm
